Target: TTR (transthyretin) (Homo sapiens, UniProt P02766)
Test: native MS of Aβ([…]) binding to TTR with and without tafamidis
Details: TTR tetramer coincubated with Aβ(12–28) and tafamidis, overnight, room temperature; indirect read-out (tetramer stabilization)

O=C(O)c1ccc2nc(-c3cc(Cl)cc(Cl)c3)oc2c1 [tafamidis] was tested. Which “native MS of Aβ(12-28) binding to TTR with and without tafamidis” value did it give?
Its value is “In the presence of tafamidis, we observed a clear decrease in Aβ binding to TTR”.

Reference: PMC9563204, “Mass Spectrometry and Machine Learning Reveal Determinants of Client Recognition by Antiamyloid Chaperones” (Molecular & Cellular Proteomics : MCP, 2022)
